Results reported in US10076519B2 (CYTOKINETICS, INC., priority 2010, dated 2018).

system: rabbit skeletal myofibrils (fast skeletal myofibrils); assay: Activation of fast skeletal myofibrils (PUMA assay, PK/LDH-coupled ATPase at pCa25); format: biochemical; settings: AC1.4 determined according to the procedure of Example 39; reported as class symbols
Summary of the method: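 Detergent-washed rabbit psoas myofibrils (~90% fast fibres, calcium-regulated) assayed at calcium giving 25% of maximal ATPase rate (pCa25). ADP turnover coupled via pyruvate kinase/lactate dehydrogenase to NADH oxidation, read at 340 nm. Buffer 12 mM PIPES, 2 mM MgCl2, 1 mM DTT, pH 6.8; AC1.4 values derived.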

| Structure (SMILES) | Mean AC1.4 |
| --- | --- |
| CC(C)(CNc1ccc(-c2ccccc2F)nn1)c1ccc(F)cc1 [[2-(4-fluorophenyl)-2-methylpropyl][6-(2-fluorophenyl)pyridazin-3-yl]amine] | A (A=<1 uM) |
| COc1ncccc1-c1ccc(NCC(C)(C)c2ccc(F)cc2)nn1 [[2-(4-fluorophenyl)-2-methylpropyl][6-(2-methoxy(3-pyridyl))pyridazin-3-yl]amine] | A (A=<1 uM) |
| COc1ncc(-c2ccc(NCC(C)(C)c3ccc(F)cc3)nn2)cn1 [[2-(4-fluorophenyl)-2-methylpropyl][6-(2-methoxypyrimidin-5-yl)pyridazin-3-yl]amine] | C (C=10-20 uM) |
| Cc1nc2cc(-c3ccc(NCC(C)(C)c4ccc(F)cc4)nn3)ccc2[nH]1 [[2-(4-fluorophenyl)-2-methylpropyl][6-(2-methylbenzimidazol-5-yl)pyridazin-3-yl]amine] | B (B=1-10 uM) |
| Cc1nc2cc(-c3ccc(NCC(C)(C)c4ccc(F)cc4)nn3)ccc2o1 [[2-(4-fluorophenyl)-2-methylpropyl][6-(2-methylbenzoxazol-5-yl)pyridazin-3-yl]amine] | B (B=1-10 uM) |
| Cc1nc2ccc(-c3ccc(NCC(C)(C)c4ccc(F)cc4)nn3)cc2o1 [[2-(4-fluorophenyl)-2-methylpropyl][6-(2-methylbenzoxazol-6-yl)pyridazin-3-yl]amine] | B (B=1-10 uM) |
| CC(C)=Cc1ccc(NCC(C)(C)c2ccc(F)cc2)nn1 [[2-(4-fluorophenyl)-2-methylpropyl][6-(2-methylprop-1-enyl)pyridazin-3-yl]amine] | B (B=1-10 uM) |
| CC(C)Cc1ccc(NCC(C)(C)c2ccc(F)cc2)nn1 [[2-(4-fluorophenyl)-2-methylpropyl][6-(2-methylpropyl)pyridazin-3-yl]amine] | B (B=1-10 uM) |
| CC(C)(CNc1ccc(-c2cccc(F)c2)nn1)c1ccc(F)cc1 [[2-(4-fluorophenyl)-2-methylpropyl][6-(3-fluorophenyl)pyridazin-3-yl]amine] | A (A=<1 uM) |
| CC(C)(CNc1ccc(-c2ccc3[nH]nc(I)c3c2)nn1)c1ccc(F)cc1 [[2-(4-fluorophenyl)-2-methylpropyl][6-(3-iodo(1H-indazol-5-yl))pyridazin-3-yl]amine] | B (B=1-10 uM) |
| Cc1n[nH]c2cc(-c3ccc(NCC(C)(C)c4ccc(F)cc4)nn3)ccc12 [[2-(4-fluorophenyl)-2-methylpropyl][6-(3-methyl(1H-indazol-6-yl))pyridazin-3-yl]amine] | B (B=1-10 uM) |
| C=Cc1n[nH]c2ccc(-c3ccc(NCC(C)(C)c4ccc(F)cc4)nn3)cc12 [[2-(4-fluorophenyl)-2-methylpropyl][6-(3-vinyl(1H-indazol-5-yl))pyridazin-3-yl]amine] | A (A=<1 uM) |
| CC(C)(CNc1ccc(-c2ccc(F)cc2)nn1)c1ccc(F)cc1 [[2-(4-fluorophenyl)-2-methylpropyl][6-(4-fluorophenyl)pyridazin-3-yl]amine] | B (B=1-10 uM) |
| COc1ccc(-c2ccc(NCC(C)(C)c3ccc(F)cc3)nn2)nc1 [[2-(4-fluorophenyl)-2-methylpropyl][6-(5-methoxy(2-pyridyl))pyridazin-3-yl]amine] | B (B=1-10 uM) |
| COc1cccc(-c2ccc(NCC(C)(C)c3ccc(F)cc3)nn2)n1 [[2-(4-fluorophenyl)-2-methylpropyl][6-(6-methoxy(2-pyridyl))pyridazin-3-yl]amine] | A (A=<1 uM) |
| CNc1n[nH]c2ccc(-c3ccc(NCC(C)(C)c4ccc(F)cc4)nn3)cc12 [[2-(4-fluorophenyl)-2-methylpropyl]{6-[3-(methylamino)(1H-indazol-5-yl)]pyridazin-3-yl}amine] | B (B=1-10 uM) |
| CC(C)(CNc1ccc(-c2cccc(C(=O)NCCO)c2)nn1)c1ccc(F)cc1 [[3-(6-{[2-(4-fluorophenyl)-2-methylpropyl]amino}pyridazin-3-yl)phenyl]-N-(2-hydroxyethyl)carboxamide] | B (B=1-10 uM) |
| CC(C)(CNc1ccc(-c2cccc(C(=O)NCCNC(=O)c3cccc(-c4ccc(NCC(C)(C)c5ccc(F)cc5)nn4)c3)c2)nn1)c1ccc(F)cc1 [[3-(6-{[2-(4-fluorophenyl)-2-methylpropyl]amino}pyridazin-3-yl)phenyl]-N-(2-{[3-(6-{[2-(4-fluorophenyl)-2-methylpropyl]amino}pyridazin-3-yl)phenyl]carbonylamino}eth-yl)carboxamide] | B (B=1-10 uM) |
| CNC(=O)c1cccc(-c2ccc(NCC(C)(C)c3ccc(F)cc3)nn2)c1 [[3-(6-{[2-(4-fluorophenyl)-2-methylpropyl]amino}pyridazin-3-yl)phenyl]-N-methylcarboxamide] | B (B=1-10 uM) |
| CC(C)(CNc1ccc(-c2cccc(CO)c2)nn1)c1ccc(F)cc1 [[3-(6-{[2-(4-fluorophenyl)-2-methylpropyl]amino}pyridazin-3-yl)phenyl]methan-1-ol] | B (B=1-10 uM) |
| CN(C)C(=O)n1nc(N)c2cc(-c3ccc(NCC(C)(C)c4ccc(F)cc4)nn3)ccc21 [[3-amino-5-(6-{[2-(4-fluorophenyl)-2-methylpropyl]amino}pyridazin-3-yl)(1H-indazolyl)]-N,N-dimethylcarboxamide] | B (B=1-10 uM) |
| CC(C)(CNc1ccc(-c2ccc3[nH]nc(NS(C)(=O)=O)c3c2)nn1)c1ccc(F)cc1 [[5-(6-{[2-(4-fluorophenyl)-2-methylpropyl]amino}pyridazin-3-yl)(1H-indazol-3-yl)](methylsulfonyl)amine] | A (A=<1 uM) |
| CC(C)(CNc1ccc(-c2ccc3[nH]nc(CO)c3c2)nn1)c1ccc(F)cc1 [[5-(6-{[2-(4-fluorophenyl)-2-methylpropyl]amino}pyridazin-3-yl)-1H-indazol-3-yl]methan-1-ol] | A (A=<1 uM) |
| CC(C)(CNc1ccc(-c2ccnc(N)c2)nn1)c1ccc(F)cc1 [[6-(2-amino(4-pyridyl))pyridazin-3-yl][2-(4-fluorophenyl)-2-methylpropyl]amine] | B (B=1-10 uM) |
| CC(C)(CNc1ccc(-c2ccc3nc(N)[nH]c3c2)nn1)c1ccc(F)cc1 [[6-(2-aminobenzimidazol-5-yl)pyridazin-3-yl][2-(4-fluorophenyl)-2-methylpropyl]amine] | A (A=<1 uM) |
| CC(C)(CNc1ccc(-c2c[nH]c(N)n2)nn1)c1ccc(F)cc1 [[6-(2-aminoimidazol-4-yl)pyridazin-3-yl][2-(4-fluorophenyl)-2-methylpropyl]amine] | B (B=1-10 uM) |
| Nc1nc(-c2ccc(NCC3(c4ncccc4F)CCC3)nn2)c[nH]1 [[6-(2-aminoimidazol-4-yl)pyridazin-3-yl]{[(3-fluoro(2-pyridyl))cyclobutyl]methyl}amine] | D (D=>20 uM) |
| CC(C)(CNc1ccc(-c2cnc(N)nc2)nn1)c1ccc(F)cc1 [[6-(2-aminopyrimidin-5-yl)pyridazin-3-yl][2-(4-fluorophenyl)-2-methylpropyl]amine] | B (B=1-10 uM) |
| CC(C)(CNc1ccc(-c2ccccc2Cl)nn1)c1ccc(F)cc1 [[6-(2-chlorophenyl)pyridazin-3-yl][2-(4-fluorophenyl)-2-methylpropyl]amine] | A (A=<1 uM) |

same assay, conditions: median AC1.4 class, procedure of Example 39

| Structure (SMILES) | Mean AC1.4 |
| --- | --- |
| CC(C)(CNc1ccc(-c2ccc3[nH]nc(NCCOCc4ccccc4)c3c2)nn1)c1ccc(F)cc1 [[2-(4-fluorophenyl)-2-methylpropyl][6-(3-{[2-(phenylmethoxy)ethyl]amino}(1H-indazol-5-yl))pyridazin-3-yl]amine] | A (A=<1 uM) |
| CN(C)c1n[nH]c2ccc(-c3ccc(NCC(C)(C)c4ccc(F)cc4)nn3)cc12 [[5-(6-{[2-(4-fluorophenyl)-2-methylpropyl]amino}pyridazin-3-yl)(1H-indazol-3-yl)]dimethylamine] | B (B=1-10 uM) |
| Fc1cccnc1C1(CNc2ccc(-c3cccc(F)c3F)nn2)CCC1 [[6-(2,3-difluorophenyl)pyridazin-3-yl]{[(3-fluoro(2-pyridyl))cyclobutyl]methyl}amine] | A (A=<1 uM) |
| Nc1ncccc1-c1ccc(NCC2(c3ncccc3F)CCC2)nn1 [[6-(2-amino(3-pyridyl))pyridazin-3-yl]{[(3-fluoro(2-pyridyl))cyclobutyl]methyl}amine] | B (B=1-10 uM) |
| Nc1nccc(-c2ccc(NCC3(c4ncccc4F)CCC3)nn2)n1 [[6-(2-aminopyrimidin-4-yl)pyridazin-3-yl]{[(3-fluoro(2-pyridyl))cyclobutyl]methyl}amine] | B (B=1-10 uM) |
| Nc1ncc(-c2ccc(NC3(c4ccc(F)cc4)CCC3)nn2)cn1 [[6-(2-aminopyrimidin-5-yl)pyridazin-3-yl][(4-fluorophenyl)cyclobutyl]amine] | B (B=1-10 uM) |
| Nc1ncc(-c2ccc(NCC3(c4ncccc4F)CCC3)nn2)cn1 [[6-(2-aminopyrimidin-5-yl)pyridazin-3-yl]{[(3-fluoro(2-pyridyl))cyclobutyl]methyl}amine] | B (B=1-10 uM) |
| CC(C)(CNc1ccc(-c2cccc(-c3nn[nH]n3)c2)nn1)c1ncccc1F [[6-(3-(2H-1,2,3,4-tetraazol-5-yl)phenyl)pyridazin-3-yl][2-(3-fluoro(2-pyridyl))-2-methylpropyl]amine] | B (B=1-10 uM) |
| Fc1cccnc1[C@]1(CNc2ccc(-c3cccc(-c4nn[nH]n4)c3)nn2)C[C@@H](F)C1 [[6-(3-(2H-1,2,3,4-tetraazol-5-yl)phenyl)pyridazin-3-yl]{[3-fluoro-1-(3-fluoro(2-pyridyl))cyclobutyl]methyl}amine] | A (A=<1 uM) |
| Fc1cccnc1C1(CNc2ccc(-c3cccc(-c4nn[nH]n4)c3)nn2)CCC1 [[6-(3-(2H-1,2,3,4-tetraazol-5-yl)phenyl)pyridazin-3-yl]{[(3-fluoro(2-pyridyl))cyclobutyl]methyl}amine] | A (A=<1 uM) |

same assay, conditions: median AC1.4 reported as class; procedure of Example 39

| Structure (SMILES) | Mean AC1.4 |
| --- | --- |
| Nc1ncc(-c2ccc(NC[C@]3(c4ncccc4F)C[C@H](F)C3)nn2)cn1 [[6-(2-aminopyrimidin-5-yl)pyridazin-3-yl]{[3-fluoro-1-(3-fluoro(2-pyridyl))cyclobutyl]methyl}amine] | B (B=1-10 uM) |
